Test results from article PMC7213079, “Hit Identification of New Potent PqsR Antagonists as Inhibitors of Quorum Sensing in Planktonic and Biofilm Grown Pseudomonas aeruginosa” (Frontiers in Chemistry, 2020).

Tests used:
Assay type in all cases: cell-based, Pseudomonas aeruginosa
PAO1-L mCTX::PpqsA-lux = assay: PpqsA-lux bioreporter assay, strain PAO1-L; settings: for IC50 / activity at 10 µM: Pseudomonas aeruginosa; for IC50: PAO1, read-out: IC50 PAO1-L; for activity at 10 µM: PAO1, read-out: Remaining Activity % (RA%) at 10 μM PAO1-L; for IC50 PAO1-L: n = 9, NA = not active at 10 μM
Protocol: In silico virtual screening was performed on the PqsR ligand binding domain (LBD) crystal structure [PDB: 4JVI; (Ilangovan et al., [2013])] using the University of Nottingham Managed Chemical Compound Collection (MCCC) containing 85,061 compounds. Molecular docking was performed using both the OpenEye docking (OpenEye Scientific Software Inc. (Hawkins et al., [2007]) and Schrödinger Suite for molecular modeling (Friesner et al., [2004]; Halgren et al., [2004]). A cut off value of the docking score function was set to -9.0 and the resulting high scoring compounds were further examined (Friesner et al., [2004]; Halgren et al., [2004]). This gave a library of around 500 diverse molecules that were evaluated using in vitro screening in a P. aeruginosa PAO1-L mCTX::PPqsA-lux reporter assay (Diggle et al., [2011]).
(§1) To inform the structural variation of 7, crystal structures with the endogenous ligand [4-hydroxy-2-heptylquinoline (NHQ)] and the inhibitor M64 were used (Ilangovan et al., [2013]; Kitao et al., [2018]). The PqsR LBD is dominated by lipophilic interactions, therefore the current SAR exploration mainly focused on varying the aromatic tail substituents and examining the effect of 8-position substitution. The rationale for these modifications was primarily based on molecular docking studies that provided insights into the mode of binding of 7 and approaches intended to improve potency. The substituent at the para- position of the aromatic ring appeared to be crucial for biological activity due to the vital π-π stacking interaction of this group with Tyr^258. […] These strains emit light upon activation of PqsR by the endogenous production of these signal molecules. […] The results of the SAR in this assay highlight the importance of testing any prospective anti-virulence strategy on multiple genetically distinct P. aeruginosa strains as a means to reduce the chance of failure at both pre-clinical and clinical stages (Freschi et al., [2015]).
(§2) PAO1-L Wild type PAO1, Lausanne subline. B.
PAO1-L mCTX::PpqsA- PAO1-L with chromosomal mini-CTX::PpqsA-lux (Soukarieh lux insertion; TcR et al., 2018) […]
(§3) mini-CTX::PpqsA-lux R6K-based mini-CTX suicide plasmid for the (Diggle et chromosomal insertion of a PpqsA-lux al., 2007) transcriptional reporter fusion; TcR
(§4) Biosensor reporter assay:
(§5) Strains PA14 mCTX::PpqsA-lux and PAO1-L mCTX::PpqsA-lux were constructed using plasmid mini-CTX::PpqsA-lux as previously described (Diggle et al., 2007) and the assay was performed according to published procedures (Fletcher et al., 2007). For screening, the compounds were tested at 10 µM concentration which was prepared from 10 mM stock in DMSO. […]

PA14 mCTX::PpqsA-lux = assay: PpqsA-lux bioreporter assay, strain PA14; settings: for IC50 PA14: PpqsA-lux bioreporter, n = 9, NA = not active at 10 μM; for IC50: Pseudomonas aeruginosa, PA14, read-out: IC50 PA14
Excerpt: as §1, with “[2015]). […]” for “[2015]).”
(§6) PA14 mCTX::PpqsA-lux PA14 with chromosomal mini-CTX::PpqsA-lux (Soukarieh insertion; TcR et al., 2018) […]
as §3, §4, §5

PA14 = assay: Pyocyanin quantification, PA14; settings: PA14, compound at 3 x IC50, 16 h, compared with the control
Excerpt: Pyocyanin is an important virulence factor for P. aeruginosa infections and in particular respiratory and urinary tract infections. Pyocyanin is a redox-active phenazine the production of which is regulated via PqsR and PqsE (Hall et al., [2016]; Rampioni et al., [2016]; Higgins et al., [2018]). Therefore, pyocyanin production serves as an indirect readout of the activity of the pqs QS system. […] Compound 40 reduced pyocyanin production by over 80% in both strains in agreement with bioreporter assay results.
Figure 4 Pyocyanin production by Pseudomonas aeruginosa after treatment with pqs inhibitors 8, 14, 23, 34, 25, 26, and 40. Quantification of pyocyanin production after inhibitor treatment at 3 × IC50 for both PAO1-L and PA14. The graph represents the average of three independent experiments carried out in triplicate (n = 9).
as §2
PAO1-L mCTX::PpqsA- PAO1-L with chromosomal mini-CTX::PpqsA-lux (Soukarieh lux insertion; TcR et al., 2018)
PA14 Wild type UCBPP-PA14 (Rahme et
as §6
Pyocyanin quantification: […]
Pyocyanin pigment was extracted into chloroform by mixing 7.5 mL of supernatant with 4.5 mL of chloroform. Pyocyanin w as further extracted into 1.5 mL of 0.2 M HCL which gave a pink/red solution and the absorbance was measured at 520 nm.

Cn1c2ccccc2c2nnc(SCC(=O)Nc3ccc(Cl)cc3)nc21 [Compound 7, N-(4-Chlorophenyl)-2-((5-methyl-5H-[1,2,4]triazino[5,6-b]indol-3-yl)thio)acetamide]
IC50 (PAO1-L mCTX::PpqsA-lux): 980 ± 20 nM | IC50 PA14 (PA14 mCTX::PpqsA-lux): inactive

Cn1c2ccc(Br)cc2c2nnc(SCC(=O)Nc3ccc(Cl)cc3)nc21 [Compound 8, 2-((8-Bromo-5-methyl-5H-[1,2,4]triazino[5,6-b]indol-3-yl)thio)-N-(4-chlorophenyl)acetamide]
IC50 (PAO1-L mCTX::PpqsA-lux): 1990 ± 230 nM | IC50 (PA14 mCTX::PpqsA-lux): 1600 ± 160 nM

Cn1c2ccccc2c2nnc(SCC(=O)Nc3cccc(Cl)c3)nc21 [Compound 11, N-(3-Chlorophenyl)-2-((5-methyl-5H-[1,2,4]triazino[5,6-b]indol-3-yl)thio)acetamide]
activity at 10 µM (PAO1-L mCTX::PpqsA-lux): 34% | IC50 PA14 (PA14 mCTX::PpqsA-lux): inactive

Cn1c2ccc(Br)cc2c2nnc(SCC(=O)Nc3cccc(Cl)c3)nc21 [Compound 12, 2-((8-Bromo-5-methyl-5H-[1,2,4]triazino[5,6-b]indol-3-yl)thio)-N-(3-chlorophenyl)acetamide]
activity at 10 µM (PAO1-L mCTX::PpqsA-lux): 43% | IC50 PA14 (PA14 mCTX::PpqsA-lux): inactive

Cn1c2ccc(Br)cc2c2nnc(SCC(=O)Nc3ccc(Cl)c(Cl)c3)nc21 [Compound 14, 2-((8-Bromo-5-methyl-5H-[1,2,4]triazino[5,6-b]indol-3-yl)thio)-N-(3,4-dichlorophenyl)acetamide]
IC50 (PAO1-L mCTX::PpqsA-lux): 3100 ± 520 nM | IC50 (PA14 mCTX::PpqsA-lux): 7580 ± 820 nM

Cn1c2ccc(Br)cc2c2nnc(SCC(=O)Nc3ccc(F)cc3)nc21 [Compound 16, 2-((8-Bromo-5-methyl-5H-[1,2,4]triazino[5,6-b]indol-3-yl)thio)-N-(4-fluorophenyl)acetamide]
IC50 (PAO1-L mCTX::PpqsA-lux): 1360 ± 210 nM

Cc1ccc(NC(=O)CSc2nnc3c4ccccc4n(C)c3n2)cc1 [Compound 17, 2-((5-Methyl-5H-[1,2,4]triazino[5,6-b]indol-3-yl)thio)-N-(p-tolyl)acetamide]
IC50 (PAO1-L mCTX::PpqsA-lux): 1860 ± 10 nM

Cc1ccc(NC(=O)CSc2nnc3c4cc(Br)ccc4n(C)c3n2)cc1 [Compound 18, 2-((8-Bromo-5-methyl-5H-[1,2,4]triazino[5,6-b]indol-3-yl)thio)-N-(p-tolyl)acetamide]
activity at 10 µM (PAO1-L mCTX::PpqsA-lux): 32%

Cn1c2ccccc2c2nnc(SCC(=O)Nc3ccc(OC(F)(F)F)cc3)nc21 [Compound 21, 2-((5-Methyl-5H-[1,2,4]triazino[5,6-b]indol-3-yl)thio)-N-(4(trifluoromethoxy)phenyl)acetamide]
activity at 10 µM (PAO1-L mCTX::PpqsA-lux): 29%

Cn1c2ccc(Br)cc2c2nnc(SCC(=O)Nc3ccc(OC(F)(F)F)cc3)nc21 [Compound 22, 2-((8-Bromo-5-methyl-5H-[1,2,4]triazino[5,6-b]indol-3-yl)thio)-N-(4-(trifluoromethoxy)phenyl)acetamide]
activity at 10 µM (PAO1-L mCTX::PpqsA-lux): 23%

Cn1c2ccccc2c2nnc(SCC(=O)Nc3ccc(CC#N)cc3)nc21 [Compound 23, N-(4-(Cyanomethyl)phenyl)-2-((5-methyl-5H-[1,2,4]triazino[5,6-b]indol-3-yl)thio)acetamide]
inhibition of pyocyanin production (PA14): most potent inhibitor | IC50 (PAO1-L mCTX::PpqsA-lux): 620 ± 100 nM | IC50 (PA14 mCTX::PpqsA-lux): 2000 ± 170 nM

Cn1c2ccccc2c2nnc(SCC(=O)Nc3ccc(Oc4ccccc4)cc3)nc21 [Compound 24, 2-((5-Methyl-5H-[1,2,4]triazino[5,6-b]indol-3-yl)thio)-N-(4-phenoxyphenyl)acetamide]
fold higher activity in PAO1-L compared to 7 (PAO1-L mCTX::PpqsA-lux; PpqsA-lux bioreporter): ~2.5 fold | IC50 (PAO1-L mCTX::PpqsA-lux): 380 ± 60 nM | IC50 (PA14 mCTX::PpqsA-lux): 350 ± 60 nM

Cn1c2ccc(Br)cc2c2nnc(SCC(=O)Nc3ccc(Oc4ccccc4)cc3)nc21 [Compound 25, 2-((8-Bromo-5-methyl-5H-[1,2,4]triazino[5,6-b]indol-3-yl)thio)-N-(4-phenoxyphenyl)acetamide]
IC50 (PAO1-L mCTX::PpqsA-lux): 4360 ± 420 nM

Cn1c2ccccc2c2nnc(SCC(=O)Nc3ccc(Br)cc3)nc21 [Compound 26, N-(4-Bromophenyl)-2-((5-methyl-5H-[1,2,4]triazino[5,6-b]indol-3-yl)thio)acetamide]
IC50 (PAO1-L mCTX::PpqsA-lux): 1710 ± 260 nM | IC50 (PA14 mCTX::PpqsA-lux): 1350 ± 190 nM

Cn1c2ccc(Br)cc2c2nnc(SCC(=O)Nc3ccc(Br)cc3)nc21 [Compound 27, 2-((8-Bromo-5-methyl-5H-[1,2,4]triazino[5,6-b]indol-3-yl)thio)-N-(4-bromophenyl)acetamide]
IC50 (PAO1-L mCTX::PpqsA-lux): 23000 ± 9000 nM | IC50 PA14 (PA14 mCTX::PpqsA-lux): inactivity

Cn1c2ccccc2c2nnc(SCC(=O)Nc3ccc(Oc4ncccn4)cc3)nc21 [Compound 28, 2-((5-Methyl-5H-[1,2,4]triazino[5,6-b]indol-3-yl)thio)-N-(4-(pyrimidin-2yloxy)phenyl)acetamide]
IC50 (PAO1-L mCTX::PpqsA-lux): 1040 ± 120 nM | IC50 (PA14 mCTX::PpqsA-lux): 1330 ± 330 nM

Cn1c2ccccc2c2nnc(SCC(=O)Nc3ccccc3Cl)nc21 [Compound 38, N-(2-Chlorophenyl)-2-((5-methyl-5H-[1,2,4]triazino[5,6-b]indol-3-yl)thio)acetamide]
IC50 PAO1-L (PAO1-L mCTX::PpqsA-lux; PpqsA-lux bioreporter): inactive | IC50 PA14 (PA14 mCTX::PpqsA-lux): inactive

Cn1c2ccc(Br)cc2c2nnc(SCC(=O)Nc3ccccc3Cl)nc21 [Compound 39, 2-((8-Bromo-5-methyl-5H-[1,2,4]triazino[5,6-b]indol-3-yl)thio)-N-(2-chlorophenyl)acetamide]
IC50 PAO1-L (PAO1-L mCTX::PpqsA-lux; PpqsA-lux bioreporter): inactive | IC50 PA14 (PA14 mCTX::PpqsA-lux): inactive

O=C(CSc1nc2cc([N+](=O)[O-])ccc2[nH]1)Nc1ccc(Oc2ccccc2)cc1 [Compound M64, reference compound]
IC50 (PAO1-L mCTX::PpqsA-lux): 320 ± 140 nM | IC50 (PA14 mCTX::PpqsA-lux): 1220 ± 340 nM
